Experimental data: article PMC4862498, “PI4 Kinase Is a Prophylactic but Not Radical Curative Target in Plasmodium vivax-Type Malaria Parasites” (Antimicrobial Agents and Chemotherapy, 2016)
Several values for one entry are separate records, joined by “and”; a condition that tells them apart may be missing. Equal values may be shown once. Entries after “also recorded” stand apart in the source; their conditions may differ.

Columns and labels:
[1] = system: P. cynomolgi developing EEFs (liver schizonts) in primary rhesus hepatocytes; design: method as in PMID 24366744; conditions: P. cynomolgi in vitro liver-stage assay; read-out: IC50 against developing EEFs; cited from earlier work
[2] = Clinical chemistry, hematology, weight and clinical observation of treated monkeys; format: in vivo, rhesus macaques (Macaca mulatta)
Description: (§1) Monkeys were treated according to the schedule shown in Table 1 (stratification of treatment groups is given in the supplemental material). During treatment, monkeys were weighed daily and received the compound via gavage, followed by gastric feeding (weight change during treatment is shown in Table S6 in the supplemental material). Monkeys in the prophylaxis groups (groups 691-proph and 599-proph) were treated ∼20 min after the i.v. sporozoite injection. The other monkeys were treated when all the monkeys in the experiment (except those in the prophylaxis group) were blood-stage patent (at day 11 p.i.). To kill the blood-stage parasites, all monkeys received a 5-day treatment of 7.5 mg/kg of body weight of chloroquine (CQ) (intramuscular [i.m.] injection), during compound dosing. KDU691 was formulated in 0.5% methylcellulose and 0.5% Tween 80 in water. LMV599 was formulated as a solid dispersion in a solution containing 5.6% (wt/wt) Tween 80–44.4% hydroxypropyl methylcellulose (HPMC) E3–38.9% Soluplus–11.1% vitamin E D-alphatocopheryl polyethylene glycol 1000 succinate (TPGS).
Blood samples were collected for clinical evaluation and pharmacokinetic (PK) analysis (see Table S2 in the supplemental material).
When the first relapse was observed, monkeys of the KDU691 experiment were radically cured with primaquine (PQ)/CQ (oral administration of 1.8 mg/kg PQ for 14 days together with i.m. administration of 7.5 mg/kg CQ for the first five days of PQ treatment) to cure both blood stage and liver stage parasites, […]
The monkeys of the LMV599/PQ experiment were cured with a five day CQ treatment (7.5 mg/kg, i.m. administration) at the first relapse and were monitored until the second relapse after which they were cured with CQ (7.5 mg/kg, intramuscular (i.m.) for five days) plus PQ (1.8 mg/kg for 14 days).
Table S2: PK and clinical blood sampling schedule in monkeys.
Groups are named 691 for KDU691 and 599 for LMV599 treatment groups, followed by -C for control group (no compound), -proph for prophylactic treatment (treated immediately after infection), and -RC for radical cure treatment (treated when blood stage positive). […]
the face and chest areas were very yellow. Therefore the 691-RC group (treated from d11 to d15 pi) was monitored by daily clinical chemistry analysis during dosing to be compared with untreated 691-C. […]
sampling of the single dose prophylaxis group at day 0, 1, 7 and 100. The lack of aberrant clinical […]
as radical cure compound, during which also clinical sampling was performed daily. a: only clinical chemistry samples were taken. *: t = 24 sample was taken only on the 1st day of dosing.
Group name Clin. chem PK sampling PK time points
Hematology (h post dosing)
691-proph 1st and 5th day of dosing t = 0, 1, 4, 6 and 24*
691-RC Dailya 1st and 5th day of dosing t = 0, 1, 4, 6 and 24* […]
599-RC Daily 1st and 4th day of dosing t = 0, 1, 2, 4 and 24
Clinical chemistry and hematology
For the clinical analysis serum from 1 mL of clotted blood was analysed using the Cobas Integra 400 plus fully automated chemistry analyser. The following clinical parameters were determined: Alkaline phosphatase; Alanine Aminotransferase; Albumin: Aspartate aminotransfeasr; Bilirubin; Calcium; Cholesterol; Creatine kinase; Creatinine; C-reactive protein: Iron; Phosphate; Gamma-glutamyl transpeptidase; Glucose; Hemoglobin; Potassium; Lactate dehydrogenase; Sodium; Total protein; Urea Haematological parameters were determined from 1 mL EDTA-blood with a Sysmex XT-2000iV automated system. The following hematological parameters were determined: Basophilic granulocytes; Eosinophilic granulocytes; Erythrocytes; Hematocrit; Leucocytes; Leucocyte differentiation; Lymphocytes; Mean corpusculair hemoglobin; Mean corpusculair hemoglobin concentration; Mean corpusculair volume; Neutrophilic granulocytes; Red cell distribution width; Thrombocytes […]
Liver tissue samples were excised, dipped in PBS, gently blotted with absorbent paper, dried, weighed and stored at -20 °C until further analysis. […]

[3] = system: P. cynomolgi sporozoite-infected rhesus macaques (hypnozoites, relapse); test: Radical cure in P. cynomolgi sporozoite-infected rhesus macaques; format: in vivo, Plasmodium cynomolgi; conditions: group PQ-RC
Description: Sporozoites were harvested from P. cynomolgi-infected mosquitoes, washed with phosphate-buffered saline (PBS), and diluted to 100,000 sporozoites (spz)/ml in PBS. One-milliliter aliquots of sporozoites were prepared and injected into monkeys via intravenous (i.v.) injection.
as §1
Parasitemia was closely monitored by thin-film analysis. Animals were trained to present for thigh pricks, which was followed by a reward. Thin-film slides were stained with 20% Giemsa stain, and at least 50 fields (±20,000 erythrocytes [RBCs]) were analyzed with a bright-field microscope (×1,200 magnification). As soon as all monkeys other than the prophylactic treatment groups were blood-stage positive, treatment was started as indicated above (Table 1). After the last day of compound dosing, the absence of blood-stage parasites was confirmed by thin smears. From day 23 p.i., monkeys were monitored daily for relapses. The KDU691 radical-cure (group 691-RC) treatment and control groups were monitored until the first relapse. The LMV599 control (group 599-C), radical-cure (group 599-RC), and PQ radical-cure (group PQ-RC) treatment groups were monitored until the second relapse or until day 100 p.i. (whichever came first). At the end of the study, monkeys that had relapsed received a 14-day primaquine treatment, with a final check 2 weeks after the last primaquine dose.
P. cynomolgi sporozoite production
A monkey was infected with […] P. cynomolgi M strain blood stage parasites, thawed from a first passage stock (i.e. blood stage parasites from a monkey infected with P. cynomolgi M strain sporozoites). For each batch of sporozoites needed, a single monkey was infected with P. cynomolgi blood stage parasites.
At day 11 and 12 post infection 9 mL infected blood was collected into a Lithium-heparinised tube. The blood was kept at 38°C and fed approximately 500 three to five days old female Anopheles stephensi mosquitoes Sind-Kasur strain Nijmegen (Nijmegen University Medical Centre St Radboud, Department of Medical Microbiology) using a glass feeder system as described by Ponnudurai et al.. After the second bleed, the monkey was cured by three daily intramuscular injections of 7.5 mg/kg chloroquine, monitored for parasite clearance 24 days after chloroquine treatment and returned to colony.
Mosquitoes were kept in climate chambers at 25 °C and 80% humidity and were fed 5% D -glucose on cotton pads daily. Seven days after feeding on the infected rhesus blood, oocyst numbers were determined in midguts of ten individuals, using 1% mercurochrome stain. Mosquitoes were given a second (uninfected) blood meal immediately afterwards to promote sporozoite maturation and invasion of the salivary glands. Sporozoites were isolated from the P. cynomolgi infected mosquitoes around day16 after the infected blood meal.
In vivo monkey infection and treatment procedures […]

[4] = system: P. cynomolgi hypnozoites in primary rhesus hepatocytes; design: method as in PMID 24366744; conditions: P. cynomolgi in vitro liver-stage assay; read-out: IC50 against hypnozoites; cited from earlier work
[5] = group PQ-RC, 1.8 mg/kg, % of weight at d0

Structure (SMILES): COc1cc(NC(C)CCCN)c2ncccc2c1 (stereo not drawn) [PQ, primaquine]
- IC50 [1]: 370 nM
- Weight change d1 [2, 5]: -0.8%
- Weight change d2 [2, 5]: -1.2%
- Weight change d3 [2, 5]: -2.6%
- Weight change d4 [2, 5]: -2.9%
- mean weight loss ([2]; primaquine treatment, 1.8 mg/kg for 5 days, control 2.7%): 2.9%
- Day p.i. to first relapse ([3]; 1.8 mg/kg oral for 5 days from day 11 p.i. plus CQ, individual monkeys, ND = not detected up to day 100 p.i., 1.8 mg/kg): 47 day p.i. and 68 day p.i.
- animals radically cured ([3]; 1.8 mg/kg oral for 5 days, monitored up to 100 days p.i., 1.8 mg/kg): two out of four; also recorded: two were completely cured
- Day p.i. to second relapse ([3]; 1.8 mg/kg oral for 5 days, individual monkeys, ND = not detected up to day 100 p.i.): 100 day p.i.
- day p.i. to first relapse, mean ± SD of the relapsing animals ([3]; 1.8 mg/kg oral for 5 days, only two of the four animals relapsed, delay P = 0.000237): 57.5 ± 14.8 day p.i.
- Day p.i. to primary parasitemia ([3]; individual monkeys, baseline, before dosing started): 9 day p.i. and 10 day p.i. and 11 day p.i.
- IC50 [4]: 840 nM
